Assay results published in the CheMixHub viscosity set.

Assay: xn = mol fraction of the nth substance listed

CCCCCCCCCCC + CCCCCCCCCC
298.15 K, 101.33 kPa
Conditions | viscosity [mPa·s]
x2 = 0.1074 | 1.056
x2 = 0.2094 | 1.03
x2 = 0.3054 | 1.009
x2 = 0.4086 | 0.9854
x2 = 0.5085 | 0.9556
x2 = 0.608 | 0.9393
x2 = 0.7092 | 0.9206
x2 = 0.8045 | 0.9013
x2 = 0.9056 | 0.868

NC=O + CCC(C)O
101 kPa
Conditions | viscosity [mPa·s]
293.15 K, x1 = 0.5093 | 4.025
318.15 K, x1 = 0.9024 | 2.175

CCCCCCCCCCC + CCCCOCCCC
viscosity [mPa·s], 101 kPa
Conditions | x2 = 0.1096 | x2 = 0.2089 | x2 = 0.3153 | x2 = 0.4013 | x2 = 0.5046 | x2 = 0.6034 | x2 = 0.7073 | x2 = 0.8109 | x2 = 0.9181
298.15 K | 1.004 | 0.9429 | 0.889 | 0.8479 | 0.8073 | 0.7715 | 0.7333 | 0.7 | 0.6643
308.15 K | 0.8817 | 0.8306 | 0.7845 | 0.7501 | 0.7159 | 0.6891 | 0.6599 | 0.6356 | 0.6114
318.15 K | 0.7547 | 0.7179 | 0.6814 | 0.6523 | 0.624 | 0.5989 | 0.5761 | 0.5579 | 0.5355

OCCCO + CC(O)CO
viscosity [mPa·s], 101 kPa
Conditions | x2 = 0.1014 | x2 = 0.2101 | x2 = 0.2999 | x2 = 0.4071 | x2 = 0.5013 | x2 = 0.5925 | x2 = 0.7113 | x2 = 0.8005 | x2 = 0.9208
298.15 K | 42.34 | 42.71 | – | – | 43.62 | 43.82 | 43.95 | 43.88 | –
303.15 K | – | 34.03 | 34.2 | 34.39 | 34.49 | 34.55 | 34.49 | 34.36 | 34.11
308.15 K | 27.18 | 27.11 | 27.05 | – | – | – | 26.36 | 26.06 | 25.59

COCC(C)OCC(C)O (stereo unspecified) + CCO
viscosity [mPa·s], 101.33 kPa
Conditions | 298.15 K | 308.15 K | 318.15 K
x1 = 0.05 | 1.237 | 1.014 | 0.84
x1 = 0.1 | 1.385 | 1.119 | 0.92
x1 = 0.1501 | 1.525 | 1.218 | 0.996
x1 = 0.2 | 1.661 | 1.32 | 1.073
x1 = 0.2501 | 1.803 | 1.421 | 1.148
x1 = 0.3 | 1.941 | 1.521 | 1.225
x1 = 0.35 | 2.081 | 1.623 | 1.301
x1 = 0.4001 | 2.216 | 1.723 | 1.379
x1 = 0.45 | 2.35 | 1.82 | 1.451
x1 = 0.5 | 2.485 | 1.916 | 1.525
x1 = 0.5497 | 2.616 | 2.006 | 1.594
x1 = 0.6 | 2.744 | 2.099 | 1.662
x1 = 0.6497 | 2.871 | 2.192 | 1.726
x1 = 0.7001 | 3.001 | 2.281 | 1.796
x1 = 0.75 | 3.125 | 2.365 | 1.857
x1 = 0.8001 | 3.241 | 2.449 | 1.922
x1 = 0.8497 | 3.359 | 2.531 | 1.979
x1 = 0.8996 | 3.472 | 2.61 | 2.036
x1 = 0.9498 | 3.579 | 2.686 | 2.09

NC=O + CCCCCO
298.15 K, 100 kPa
Conditions | viscosity [mPa·s]
x1 = 0.05608 | 3.38
x1 = 0.1142 | 3.39
x1 = 0.2182 | 3.48
x1 = 0.2483 | 3.57
x1 = 0.3487 | 3.73
x1 = 0.3776 | 3.77
x1 = 0.4665 | 3.98
x1 = 0.4951 | 4.02
x1 = 0.5681 | 4.15
x1 = 0.6207 | 4.23
x1 = 0.7099 | 4.32
x1 = 0.7533 | 4.33
x1 = 0.8001 | 4.23
x1 = 0.8518 | 4.07
x1 = 0.9349 | 3.69

CCCCCCCCCCC + CCCCCCCCCCCCCCCC
298.15 K, 101.33 kPa
Conditions | viscosity [mPa·s]
x1 = 0.1095 | 2.783
x1 = 0.2008 | 2.549
x1 = 0.3116 | 2.315
x1 = 0.4052 | 2.108
x1 = 0.5071 | 1.905
x1 = 0.6081 | 1.723
x1 = 0.7051 | 1.534
x1 = 0.806 | 1.363
x1 = 0.9031 | 1.209

OCCCl + CCO
viscosity [mPa·s], 101.33 kPa
Conditions | x1 = 0.0955 | x1 = 0.2589 | x1 = 0.2902 | x1 = 0.3931 | x1 = 0.4925 | x1 = 0.5932 | x1 = 0.6938 | x1 = 0.7947 | x1 = 0.8984
298.15 K | 1.086 | 1.262 | 1.302 | 1.45 | 1.61 | 1.798 | 2.001 | 2.222 | 2.538
303.15 K | 0.987 | 1.14 | 1.174 | 1.306 | 1.447 | 1.601 | 1.772 | 1.958 | 2.197
308.15 K | 0.897 | 1.034 | 1.065 | 1.179 | 1.297 | 1.432 | 1.579 | 1.735 | 1.932
